ChEMBL document CHEMBL2062415, “Steroids from Commiphora mukul display antiproliferative effect against human prostate cancer PC3 cells via induction of apoptosis” (Bioorg Med Chem Lett, 2012)
Activity calls are given as the source filed them. The rule behind the calls is not given here.

Legend:
K562 [1] = assay: Induction of apoptosis in human K562 cells assessed as accumulation at G0/G1 phase at 10 uM after 48 hrs by propidium iodide staining-based flow cytometric analysis (reference value: 38.61%); assay type: functional
DU-145 [2] = assay: Induction of apoptosis in human DU145 cells assessed as accumulation at G0/G1 phase at 10 uM after 48 hrs by propidium iodide staining-based flow cytometric analysis (reference value: 72.11%); assay type: functional
PC-3 [3] = assay: Induction of apoptosis in human PC3 cells assessed as cleavage of caspase 3 at 5 to 20 uM after 48 hrs by Western blot analysis; assay type: functional, cell-based
K562 [4] = assay: Induction of apoptosis in human K562 cells assessed as necrotic cells at 1 uM after 48 hrs by annexinV/propidium iodide staining-based FITC analysis (reference value: 1.19%); assay type: functional
DU-145 [5] = assay: Induction of apoptosis in human DU145 cells assessed as accumulation at S phase at 20 uM after 48 hrs by propidium iodide staining-based flow cytometric analysis (reference value: 11.48%); assay type: functional
PC-3 [6] = assay: Induction of apoptosis in human PC3 cells assessed as late apoptotic cells at 20 uM after 48 hrs by annexinV/propidium iodide staining-based FITC analysis relative to control; assay type: functional
DU-145 [7] = assay: Induction of apoptosis in human DU145 cells assessed as accumulation at G2/M phase at 10 uM after 48 hrs by propidium iodide staining-based flow cytometric analysis (reference value: 16.14%); assay type: functional
PC-3 [8] = assay: Cell cycle arrest in human PC3 cells assessed as accumulation at S phase at 5 uM after 48 hrs by propidium iodide staining-based flow cytometric analysis relative to control; assay type: functional
PC-3 [9] = assay: Induction of apoptosis in human PC3 cells assessed as necrotic cells at 5 uM after 48 hrs by annexinV/propidium iodide staining-based FITC analysis relative to control; assay type: functional
K562 [10] = assay: Induction of apoptosis in human K562 cells assessed as early apoptotic cells at 1 uM after 48 hrs by annexinV/propidium iodide staining-based FITC analysis (reference value: 2.08%); assay type: functional
PC-3 [11] = assay: Induction of apoptosis in human PC3 cells assessed as early apoptotic cells after 48 hrs by annexinV/propidium iodide staining-based FITC analysis relative to control; assay type: functional, cell-based
DU-145 [12] = assay: Cytotoxicity against human DU145 cells after 24 hrs by MTT assay; assay type: functional, cell-based; details: DU-145, 24 h
MCF7 [13] = assay: Induction of apoptosis in human MCF7 cells assessed as accumulation at G2/M phase at 20 uM after 48 hrs by propidium iodide staining-based flow cytometric analysis (reference value: 9.55%); assay type: functional
PC-3 [14] = assay: Induction of apoptosis in human PC3 cells assessed as early apoptotic cells at 10 uM after 48 hrs by annexinV/propidium iodide staining-based FITC analysis relative to control; assay type: functional
PC-3 [15] = assay: Induction of apoptosis in human PC3 cells assessed as necrotic cells at 10 uM after 48 hrs by annexinV/propidium iodide staining-based FITC analysis relative to control; assay type: functional
MCF7 [16] = assay: Induction of apoptosis in human MCF7 cells assessed as early apoptotic cells at 5 uM after 48 hrs by annexinV/propidium iodide staining-based FITC analysis (reference value: 5.48%); assay type: functional
PC-3 [17] = assay: Cell cycle arrest in human PC3 cells assessed as accumulation at G0/G1 phase at 10 uM after 48 hrs by propidium iodide staining-based flow cytometric analysis relative to control; assay type: functional
K562 [18] = assay: Cytotoxicity against human K562 cells after 24 hrs by MTT assay; assay type: functional, cell-based; details: K562, 24 h
PC-3 [19] = assay: Induction of apoptosis in human PC3 cells assessed as cleavage of caspase 9 at 5 to 20 uM after 48 hrs by Western blot analysis; assay type: functional, cell-based
MCF7 [20] = assay: Induction of apoptosis in human MCF7 cells assessed as necrotic cells at 5 uM after 48 hrs by annexinV/propidium iodide staining-based FITC analysis (reference value: 8.28%); assay type: functional
MCF7 [21] = assay: Induction of apoptosis in human MCF7 cells assessed as late apoptotic cells at 10 uM after 48 hrs by annexinV/propidium iodide staining-based FITC analysis (reference value: 3.57%); assay type: functional
DU-145 [22] = assay: Induction of apoptosis in human DU145 cells assessed as accumulation at S phase at 40 uM after 48 hrs by propidium iodide staining-based flow cytometric analysis (reference value: 11.48%); assay type: functional
K562 [23] = assay: Induction of apoptosis in human K562 cells assessed as early apoptotic cells at 5 uM after 48 hrs by annexinV/propidium iodide staining-based FITC analysis (reference value: 2.08%); assay type: functional
MCF7 [24] = assay: Induction of apoptosis in human MCF7 cells assessed as late apoptotic cells at 20 uM after 48 hrs by annexinV/propidium iodide staining-based FITC analysis (reference value: 3.57%); assay type: functional
MCF7 [25] = assay: Induction of apoptosis in human MCF7 cells assessed as accumulation at G2/M phase at 5 uM after 48 hrs by propidium iodide staining-based flow cytometric analysis (reference value: 9.55%); assay type: functional
PC-3 [26] = assay: Cell cycle arrest in human PC3 cells assessed as accumulation at G2/M phase after 48 hrs by propidium iodide staining-based flow cytometric analysis; assay type: functional
DU-145 [27] = assay: Induction of apoptosis in human DU145 cells assessed as late apoptotic cells at 40 uM after 48 hrs by annexinV/propidium iodide staining-based FITC analysis (reference value: 2.78%); assay type: functional
MCF7 [28] = assay: Induction of apoptosis in human MCF7 cells assessed as accumulation at G0/G1 phase at 20 uM after 48 hrs by propidium iodide staining-based flow cytometric analysis (reference value: 67.46%); assay type: functional
PC-3 [29] = assay: Induction of apoptosis in human PC3 cells assessed as late apoptotic cells at 10 uM after 48 hrs by annexinV/propidium iodide staining-based FITC analysis relative to control; assay type: functional
PC-3 [30] = assay: Decrease in Bcl-2 protein level in human PC3 cells at 5 uM after 48 hrs by Western blot analysis; assay type: functional, cell-based
K562 [31] = assay: Cytotoxicity against human K562 cells assessed as cell viability at 10 uM after 24 hrs by MTT assay; assay type: functional; details: K562, 24 h, read-out: Activity
PC-3 [32] = assay: Cytotoxicity against human PC3 cells assessed as cell viability at 10 uM after 24 hrs by MTT assay; assay type: functional; details: PC-3, 24 h, read-out: Activity
PC-3 [33] = assay: Induction of apoptosis in human PC3 cells assessed as late apoptotic cells at 5 uM after 48 hrs by annexinV/propidium iodide staining-based FITC analysis relative to control; assay type: functional
PC-3 [34] = assay: Inhibition of cyclin A protein expression in human PC3 cells at 20 uM after 48 hrs by Western blot analysis; assay type: functional, cell-based
K562 [35] = assay: Induction of apoptosis in human K562 cells assessed as accumulation at G2/M phase at 10 uM after 48 hrs by propidium iodide staining-based flow cytometric analysis (reference value: 15.72%); assay type: functional
DU-145 [36] = assay: Induction of apoptosis in human DU145 cells assessed as accumulation at S phase at 10 uM after 48 hrs by propidium iodide staining-based flow cytometric analysis (reference value: 11.48%); assay type: functional
DU-145 [37] = assay: Induction of apoptosis in human DU145 cells assessed as necrotic cells at 40 uM after 48 hrs by annexinV/propidium iodide staining-based FITC analysis (reference value: 0.35%); assay type: functional
PC-3 [38] = assay: Inhibition of cyclin B1 protein expression in human PC3 cells at 20 uM after 48 hrs by Western blot analysis; assay type: functional, cell-based

Q: `CC[C@H](/C=C/[C@@H](C)[C@H]1CC[C@H]2[C@H]3[C@H]([C@H](O)C[C@]12C)[C@@]1(C)CC[C@H](O)CC1=C[C@H]3O)C(C)C` was tested. Which Activity (K562 [1]) did it give?
A: 39.64%

Q: And the Activity (DU-145 [2])?
A: 65.66%

Q: What about the Activity (PC-3 [3]) of the same compound?
A: Active

Q: What about the Activity (K562 [4]) of the same compound?
A: 0.5%

Q: And the Activity (DU-145 [5])?
A: 11.38%

Q: What about the Activity (PC-3 [6]) of the same compound?
A: 42.21%

Q: And the Activity (DU-145 [7])?
A: 21.4%

Q: And the Activity (PC-3 [8])?
A: 26.9%

Q: And the Activity (PC-3 [9])?
A: 1.87%

Q: And the Activity (K562 [10])?
A: 1.99%

Q: And the Activity (PC-3 [11])?
A: Dose-dependent effect

Q: And the IC50 (DU-145 [12])?
A: 16.6 µM

Q: And the Activity (MCF7 [13])?
A: 24.7%

Q: What about the Activity (PC-3 [14]) of the same compound?
A: 1.49%

Q: What about the Activity (PC-3 [15]) of the same compound?
A: 2.09%

Q: And the Activity (MCF7 [16])?
A: 6.72%

Q: What about the Activity (PC-3 [17]) of the same compound?
A: 52.69%

Q: And the IC50 (K562 [18])?
A: 5.21 µM

Q: What about the Activity (PC-3 [19]) of the same compound?
A: Active

Q: What about the Activity (MCF7 [20]) of the same compound?
A: 3.47%

Q: What about the Activity (MCF7 [21]) of the same compound?
A: 4.42%

Q: What about the Activity (DU-145 [22]) of the same compound?
A: 17.68%

Q: And the Activity (K562 [23])?
A: 3.77%

Q: And the Activity (MCF7 [24])?
A: 6.76%

Q: What about the Activity (MCF7 [25]) of the same compound?
A: 8.56%

Q: What about the Activity (PC-3 [26]) of the same compound?
A: Dose-dependent effect

Q: What about the Activity (DU-145 [27]) of the same compound?
A: 13.63%

Q: And the Activity (MCF7 [28])?
A: 55.93%

Q: What about the Activity (PC-3 [29]) of the same compound?
A: 37.79%

Q: And the inhibition (PC-3 [30])?
A: Active

Q: What about the viability at 10 µM (K562 [31]) of the same compound?
A: 32%

Q: And the viability at 10 µM (PC-3 [32])?
A: 40%

Q: What about the Activity (PC-3 [33]) of the same compound?
A: 27.43%

Q: And the inhibition (PC-3 [34])?
A: Active

Q: What about the Activity (K562 [35]) of the same compound?
A: 12.11%

Q: What about the Activity (DU-145 [36]) of the same compound?
A: 12.94%

Q: What about the Activity (DU-145 [37]) of the same compound?
A: 8.01%

Q: And the inhibition (PC-3 [38])?
A: Active
